Laboratory results published in US8383622B2 (priority 2007, dated 2013).

Legend:
Mouse 11β-HSD1 = Mouse 11β-HSD1 (Mus musculus, UniProt P50172); experiment: Evaluation of compound against mouse 11β-HSD1 (HTRF assay, 11-dehydrocorticosterone substrate); type: biochemical; settings: 11-dehydrocorticosterone 2 μM, 37° C. 2 hours
Description: Evaluation Method of 11β-HSD1 Inhibitor (Evaluation of Compound Against Mouse 11β-HSD1)
(§1) After preincubating an inhibitor in a reaction solution consisting of 50 mM sodium phosphate buffer (pH 7.5), bovine serum albumin (1 mg/mL), NADPH (0.42 mg/mL), glucose-6-phosphate (1.26 mg/mL), glucose-6-phosphate dehydrogenase, and an enzyme at room temperature for 30 minutes, 11-dehydrocorticosterone (2 μM) was added as a substrate (total amount 10 μL). After reacting at 37° C. for 2 hours, an XL-665-labeled cortisol solution (5 μL), and a Cryptate-labeled anti-cortisol antibody solution (5 μL) were added. The reaction was performed at room temperature for 2 hours, and fluorescence intensity (HTRF method) was measured.
A corticosterone concentration was calculated from a standard curve prepared using a known concentration of corticosterone for each assay.
Taking a concentration of corticosterone generated in the absence of the inhibitor as a control value, 50% inhibitory concentration (IC50 value) of the inhibitor against 11β-HSD1 was calculated from an inhibition curve plotting inhibition rate against the control value at each concentration of the inhibitor.

Human 11β-HSD1 = Human 11β-HSD1 (Homo sapiens, UniProt P28845); experiment: Evaluation of compound against human 11β-HSD1 (HTRF cortisol assay, cortisone substrate); type: biochemical; settings: cortisone 5 μM, 37° C. 2 hours
Description: Evaluation Method of […] Inhibitor (Evaluation of Compound Against Human 11β-HSD1)
as §1, with “dehydrogenase” for “dehydrogenase,”, “30), (Inutes, cortisone (5” for “30 minutes, 11-dehydrocorticosterone (2”, “measured. A cortisol concentration was calculated from a standard curve prepared using a known concentration of cortisol for each assay.” for “measured.”
Taking a concentration of cortisol generated in the absence of the inhibitor as a control value, 50% inhibitory concentration (IC50 value) of the inhibitor against 11β-HSD1 was calculated from an inhibition curve plotting inhibition rate against the control value at each concentration of an inhibitor.

Chain of Human 11β-HSD1 (P28845 whole entry): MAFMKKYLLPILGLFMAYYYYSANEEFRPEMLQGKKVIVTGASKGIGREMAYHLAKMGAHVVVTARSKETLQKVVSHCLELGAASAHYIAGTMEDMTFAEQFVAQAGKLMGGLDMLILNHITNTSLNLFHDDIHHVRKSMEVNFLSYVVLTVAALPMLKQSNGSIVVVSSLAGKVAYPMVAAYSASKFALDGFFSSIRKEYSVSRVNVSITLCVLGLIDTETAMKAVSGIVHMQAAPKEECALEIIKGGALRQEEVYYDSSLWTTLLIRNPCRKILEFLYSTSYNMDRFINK
Chain of Mouse 11β-HSD1 (P50172 whole entry): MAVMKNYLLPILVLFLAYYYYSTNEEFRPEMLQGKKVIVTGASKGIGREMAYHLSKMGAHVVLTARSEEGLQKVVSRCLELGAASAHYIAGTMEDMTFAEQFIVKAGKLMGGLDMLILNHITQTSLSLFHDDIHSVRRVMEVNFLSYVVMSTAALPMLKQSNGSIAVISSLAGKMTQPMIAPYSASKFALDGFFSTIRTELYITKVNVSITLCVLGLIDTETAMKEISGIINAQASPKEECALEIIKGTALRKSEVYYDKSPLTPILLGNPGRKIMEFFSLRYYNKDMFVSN

SMILES | IC50 (Mouse 11β-HSD1) [nM] | IC50 (Human 11β-HSD1) [nM]
CC(C)COc1c(C(=O)N[C@H]2C3CC4CC2C[C@](OC(N)=O)(C4)C3)cnn1/C=C/C(C)(C)C#N [Compound I-7] | 0.41 | 3.4
CC(C)COc1c(C(=O)N[C@H]2C3CC4CC2C[C@](OC(N)=O)(C4)C3)cnn1/C=C/C(C)(C)NS(C)(=O)=O [Compound I-9] | 1.7 | 11
CC(=O)NC(C)(C)/C=C/n1ncc(C(=O)N[C@H]2C3CC4CC2C[C@](CO)(C4)C3)c1-c1ccccc1 [Compound I-131] | 1.4 | 20.8
COC(=O)NC(C)(C)/C=C/n1ncc(C(=O)NC2C3CC4CC2CC(COC(N)=O)(C4)C3)c1-n1cccn1 (stereo not shown) [Compound I-139] | 0.37 | 64.4
CC(C)COc1c(C(=O)N[C@H]2C3CC4CC2C[C@](O)(C4)C3)cnn1/C=C/C(C)(C)NC(=O)CCC1CCCC1 [Compound I-36] | 1 | 1.2
COC(=O)NC(C)(C)/C=C/n1ncc(C(=O)N[C@H]2C3CC4CC2C[C@](F)(C4)C3)c1-c1ccccc1 [Compound I-128] | 5.5 | 62.4
CC(=O)NC(C)(C)/C=C/n1ncc(C(=O)N[C@H]2C3CC4CC2C[C@](CO)(C4)C3)c1CC(C)C [Compound I-121] | 4.9 | 154
CC(C)COc1c(C(=O)NC2C3CC4CC2CC(O)(C4)C3)cnn1C=CC(C)(C)NC(=O)COCc1ccccc1 (stereo not shown) [Compound I-77] | 0.23 | 0.62
CC(C)COc1c(C(=O)N[C@H]2C3CC4CC2C[C@](CO)(C4)C3)cnn1/C=C/C(C)(C)C(N)=O [Compound I-63] | 0.21 | 1.4
COC(=O)NC(C)(C)/C=C/n1ncc(C(=O)N[C@H]2C3CC4CC2C[C@](O)(C4)C3)c1-n1cccn1 [Compound I-133] | 0.52 | 75.6
COC(=O)NC(C)(C)/C=C/n1ncc(C(=O)N[C@H]2C3CC4CC2C[C@](OC(N)=O)(C4)C3)c1-c1ccccc1 [Compound I-127] | 3 | 88.1
